Common to all, as to type: in vivo
The test system of assay [1] is pigweed (Amaranthus retroflexus). The experiment in a line: Test A postemergence. To be noted: Amaranthus retroflexus, post-emergence, 240 h, read-out: Plant response rating, Pigweed; for pest or weed control at 125 g/ha: 125 g ai/ha, postemergence, visual injury after approximately 10 d, 0 to 100 scale (0 no effect, 100 complete control). Summed up:
(§1)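 Treatment is preemergence as a directed soil spray after planting, or postemergence at the one- to two-leaf stage, with test chemical in a non-phytotoxic solvent mixture plus surfactant. Plants stay in the greenhouse about 10 d before visual injury scoring on a 0 to 100 scale versus untreated controls.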

The test system of assay [2] is Kochia (Kochia scoparia). The experiment in a line: Test A postemergence. The settings on record: Bassia scoparia, post-emergence, 240 h, read-out: Plant response rating, Kochia; for pest or weed control at 125 g/ha: 125 g ai/ha, postemergence, visual injury after approximately 10 d, 0 to 100 scale (0 no effect, 100 complete control). A digest of the protocol:
as §1

In assay [3] the test system is Galium (catchweed bedstraw, Galium aparine). The experiment in a line: Test A postemergence. To be noted: Galium, post-emergence, 240 h, read-out: Plant response rating, Galium; for pest or weed control at 125 g/ha: 125 g ai/ha, postemergence, visual injury after approximately 10 d, 0 to 100 scale (0 no effect, 100 complete control). A digest of the protocol:
as §1

The test system of assay [4] is wheat (Triticum aestivum). In words: Test A postemergence. To be noted: Triticum aestivum, post-emergence, 240 h, read-out: Plant response rating, Wheat. Summed up:
as §1

In assay [5] the test system is giant foxtail (Setaria faberii). In words: Test A postemergence. The settings on record: Setaria faberi, post-emergence, 240 h, read-out: Plant response rating, Foxtail, Giant; for pest or weed control at 125 g/ha: 125 g ai/ha, postemergence, visual injury after approximately 10 d, 0 to 100 scale (0 no effect, 100 complete control). A digest of the protocol:
as §1

The test system of assay [6] is pigweed (Amaranthus retroflexus). In words: Test A preemergence. The settings on record: Amaranthus retroflexus, pre-emergence, 240 h; for pest or weed control at 125 g/ha: 125 g ai/ha, preemergence, visual rating after approx. 10 d, 0 to 100 scale where 0 is no effect and 100 is complete control.
Assay [7] deals with ragweed (common ragweed, Ambrosia elatior). In words: Test A preemergence. The settings on record: Ambrosia artemisiifolia, pre-emergence, 240 h; for pest or weed control at 125 g/ha: 125 g ai/ha, preemergence, visual rating after approx. 10 d, 0 to 100 scale where 0 is no effect and 100 is complete control. A digest of the protocol:
as §1

Assay [8] deals with Kochia (Kochia scoparia). The experiment in a line: Test A preemergence. To be noted: Bassia scoparia, pre-emergence, 240 h; for pest or weed control at 125 g/ha: 125 g ai/ha, preemergence, visual rating after approx. 10 d, 0 to 100 scale where 0 is no effect and 100 is complete control. Summed up:
as §1

The subject of assay [9] is barnyardgrass (Echinochloa crus-galli). In words: Test A preemergence. To be noted: Echinochloa crus-galli, pre-emergence, 240 h; for pest or weed control at 125 g/ha: 125 g ai/ha, preemergence, visual rating after approx. 10 d, 0 to 100 scale where 0 is no effect and 100 is complete control. A digest of the protocol: as §1
The subject of assay [10] is ryegrass, Italian (Italian ryegrass, Lolium multiflorum). In words: Test A preemergence. The settings on record: Lolium multiflorum, pre-emergence, 240 h; for pest or weed control at 125 g/ha: 125 g ai/ha, preemergence, visual rating after approx. 10 d, 0 to 100 scale where 0 is no effect and 100 is complete control. Summed up: as §1
Assay [11] relates to giant foxtail (Setaria faberii). The experiment in a line: Test A preemergence. To be noted: Setaria faberi, pre-emergence, 240 h; for pest or weed control at 125 g/ha: 125 g ai/ha, preemergence, visual rating after approx. 10 d, 0 to 100 scale where 0 is no effect and 100 is complete control. A digest of the protocol: as §1
For another assay, the system named is rice (Oryra sativa). In words: Test B flooded paddy test. The settings on record: Oryza sativa, Flood, 250 g ai/ha; scale of 0 to 100 where 0 is no effect and 100 is complete control; read-out: Rice plant response rating. A digest of the protocol:
(§2)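 Visual ratings (0 none to 100 complete control) are relative to untreated plants, taken 13–15 d after treatment in a greenhouse. Test material went straight into floodwater standing 3 cm above the soil, kept constant, on plants at the 2-leaf stage.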

Assay [12] deals with barnyardgrass (Echinochloa crus-galli). The experiment in a line: Test B flooded paddy test. To be noted: Echinochloa crus-galli, Flood, 250 g ai/ha; scale of 0 to 100 where 0 is no effect and 100 is complete control; read-out: Barnyardgrass plant response rating. A digest of the protocol:
as §2

Assay [13] relates to ducksalad (Heteranthera limosa). The experiment in a line: Test B flooded paddy test. The settings on record: Heteranthera limosa, Flood, 250 g ai/ha; scale of 0 to 100 where 0 is no effect and 100 is complete control; read-out: Ducksalad plant response rating. Summed up:
as §2

For assay [14], the system named is sedge, umbrella (small-flower umbrella sedge, Cyperus difformis). The experiment in a line: Test B flooded paddy test. The settings on record: Cyperus difformis, Flood, 250 g ai/ha; scale of 0 to 100 where 0 is no effect and 100 is complete control; read-out: Sedge, Umbrella plant response rating. Summed up:
as §2

The mark [15] stands for this setting: read-out: Plant response rating, Pigweed.
The mark [16] stands for this setting: read-out: Plant response rating, Ragweed.
Setting [17] is: read-out: Plant response rating, Kochia.
Where [18] appears, read: read-out: Plant response rating, Barnyardgrass.
[19] abbreviates: read-out: Plant response rating, Ryegrass, Italian.
[20] abbreviates: read-out: Plant response rating, Foxtail, Giant.
[21] abbreviates: Postemergence, 31 g ai/ha, visual injury after approx. 10 d, 0 to 100 scale, 0 no effect, 100 complete control.

For the compound `CC(F)(F)c1cccc([C@H]2CNC(=O)[C@@H]2C(=O)Nc2ccccc2F)c1` [Compound 782], the pest or weed control at 125 g/ha in [1] came to 0%; in the assay on Kochia (Kochia scoparia) [2], 10%; in assay [3], 70%; in [5] it was 90%; in assay [6] (setting [15]), 0%; in assay [7] (setting [16]), 0%. Also, the pest or weed control at 125 g/ha with Kochia (Kochia scoparia) [8] (setting [17]) turned out to be 80%; in assay [9] (setting [18]), 80%; in assay [10] (setting [19]), 40%; in assay [11] (setting [20]), 90%. The plant injury at 125 g/ha in [4] (125 g ai/ha, postemergence, visual injury after approximately 10 d, 0 to 100 scale (0 no effect, 100 complete control)) came out at 60%. Moreover, the pest or weed control at 500 g/ha in [6] (500 g ai/ha, Preemergence, visual injury vs untreated controls after approximately 10 d, read-out: Pigweed plant response rating (0 to 100 scale where 0 is no effect and 100 is complete control)) was determined as 50%; in [7] (500 g ai/ha, Preemergence, visual injury vs untreated controls after approximately 10 d, read-out: Ragweed plant response rating (0 to 100 scale where 0 is no effect and 100 is complete control)), 20%; in the assay with Kochia (Kochia scoparia) [8] (500 g ai/ha, Preemergence, visual injury vs untreated controls after approximately 10 d, read-out: Kochia plant response rating (0 to 100 scale where 0 is no effect and 100 is complete control)), 90%; in assay [9] (500 g ai/ha, Preemergence, visual injury vs untreated controls after approximately 10 d, read-out: Barnyardgrass plant response rating (0 to 100 scale where 0 is no effect and 100 is complete control)) it was 90%; in assay [10] (500 g ai/ha, Preemergence, visual injury vs untreated controls after approximately 10 d, read-out: Ryegrass, Italian plant response rating (0 to 100 scale where 0 is no effect and 100 is complete control)), 60%; in [11] (500 g ai/ha, Preemergence, visual injury vs untreated controls after approximately 10 d, read-out: Foxtail, Giant plant response rating (0 to 100 scale where 0 is no effect and 100 is complete control)), 100%. Also, the pest or weed control at 250 g/ha with rice (Oryra sativa) turned out to be 0%; in [12] it was 65%; in assay [13], 100%; in assay [14], 0%.

For `C/C=C/C1CNC(=O)C1C(=O)Nc1ccccc1F` (stereo not shown) [Compound 792], the pest or weed control at 125 g/ha (in [1]; with Kochia (Kochia scoparia) [2]; in assay [3]; in assay [5]; in assay [6] (setting [15]); in [7] (setting [16])) was 0% in each case. Further, the pest or weed control at 125 g/ha (in the assay with Kochia (Kochia scoparia) [8] (setting [17]); in assay [9] (setting [18]); in assay [10] (setting [19]); in [11] (setting [20])) was 0% in each case. Besides, the pest or weed control at 31 g/ha in [1] (setting [21]) came out at 0%; in the assay on Kochia (Kochia scoparia) [2] (setting [21]), 0%; in [3] (setting [21]) it was 0%; in assay [5] (setting [21]), 0%; in assay [6] (Preemergence, 31 g ai/ha, 0 to 100 scale (0 no effect, 100 complete control), read-out: Plant response rating, Pigweed), 0%; in assay [7] (Preemergence, 31 g ai/ha, 0 to 100 scale (0 no effect, 100 complete control), read-out: Plant response rating, Ragweed), 0%. For the same compound, the pest or weed control at 31 g/ha with Kochia (Kochia scoparia) [8] (Preemergence, 31 g ai/ha, 0 to 100 scale (0 no effect, 100 complete control), read-out: Plant response rating, Kochia) worked out at 0%; in assay [9] (Preemergence, 31 g ai/ha, 0 to 100 scale (0 no effect, 100 complete control), read-out: Plant response rating, Barnyardgrass) it was 0%; in assay [10] (Preemergence, 31 g ai/ha, 0 to 100 scale (0 no effect, 100 complete control), read-out: Plant response rating, Ryegrass, Italian), 0%; in [11] (Preemergence, 31 g ai/ha, 0 to 100 scale (0 no effect, 100 complete control), read-out: Plant response rating, Foxtail, Giant) it was 0%. For the same compound, in assay [4] (setting [21]), the plant injury at 31 g/ha was 0%. Further, the pest or weed control at 250 g/ha (in the assay with rice (Oryra sativa); in assay [12]; in [13]; in [14]) was 0% each time.
